Data from US20100311756A1, “METHODS FOR DELAYING THE PROGRESSION OF AT LEAST ONE OF CARDIAC HYPERTROPHY, CARDIAC REMODELING OR LEFT VENTRICULAR FUNCTION OR THE ONSET OF HEART FAILURE IN SUBJECTS IN NEED OF TREATMENT THEREOF” (TAKEDA PHARMACEUTICALS NORTH AMERICA, INC., priority 2009, published 2010).
Marks after values point to notes of the source that are not given here.

System: mice subjected to TAC or sham surgery
Experiment: TAC or sham surgery in mice, Protocol 2: febuxostat or allopurinol for three weeks beginning seven days after TAC
Type: in vivo
Details: for Anterior wall thickness at end-diastole / Anterior wall thickness at end-systole / LV ejection fraction / LV end-diastolic diameter / LV end-systolic diameter / LV fractional shortening / Lung weight / Lung/body weight / Posterior wall thickness at end-diastole / Posterior wall thickness at end-systole / Ventricle weight / Ventricle/body weight: drinking water (FBS 0.05 mg/ml, allopurinol 0.15 mg/ml) three weeks from day 7; for Survival rate: over the three-week treatment period; for TAC-induced ventricular fibrosis: histological staining
From the text: • Mice. Male C57/BL6 mice at 8-9 weeks of age were purchased from Jackson Laboratories (Bar Harbor, Me.) for use in this study. Mice were housed in an air-conditioned room with a 12-hour:12-hour light-dark cycle, received standard mouse chow, and drank tap water. This study was approved by the Institutional Animal Care and Use Committee of the University of Minnesota. • Experimental Protocol 1. This protocol was designed to determine whether febuxostat (2-[3-cyano-4-(2-methylpropoxy)phenyl]-4-methylthiazole-5-carboxylic acid) treatment, beginning immediately after the onset of acute pressure overload, could protect against transverse aortic constriction (TAC)-induced left ventricular (LV) hypertrophy, dysfunction and mortality. Three treatment groups were included (See Table 1, below): sham-operated mice (n=20), TAC mice treated with vehicle (0.5% methylcellulose) (n=30), and TAC mice treated with febuxostat (suspension in 0.5% methylcellulose) (n=30). To generate LV hypertrophy in a short time period with a significant incidence of cardiac mortality, TAC was created by ligating the transverse aorta against a 27 G needle to create severe LV pressure overload. Since mice tend to take in less water and food during the first 1-3 days after the TAC procedure, febuxostat (5 mg/kg/day in 250 μl vehicle) or vehicle (250 μl) was administered daily by oral gavage for a total of 8 days, with the first dose administered on the day of the surgery after the animal awoke from anesthesia (˜60 min after the TAC procedure). On the eighth day, LV function was assessed by echocardiography approximately 1 hour after the last febuxostat or vehicle dose. Approximately 3 hours after echocardiographic evaluation (4 hours after the last febuxostat or vehicle dose), the mice were weighed and blood samples collected. The animals were euthanized and the heart and lungs excised; the right and left atria were trimmed away, and the ventricles and lungs were weighed. Tissue from the left ventricle was used for histological evaluation and Western blots. • Experimental Protocol 2. This protocol was designed to determine whether administration of febuxostat (FBS) or allopurinol (AL) beginning after the onset of cardiac hypertrophy, LV dysfunction and heart failure could exert a protective effect. For this protocol, mice subjected to TAC (using a 26 gauge (G) needle to generate moderate TAC) or sham surgery were divided into six experimental groups as described in Table 1, below. Beginning seven days after TAC, animals were treated with vehicle (0.01 mg/ml NaCl, equivalent salt content as in the FBS drinking water), FBS (0.05 mg/ml) or AL (0.15 mg/ml) in drinking water for three weeks. Following three weeks of treatment, ventricular function was assessed by echocardiography. Blood samples and cardiac tissue were collected during 2-3 hours after the echocardiographic evaluation as described previously in Protocol 1.
• Minimally Invasive TAC Procedure. TAC was performed using the minimally invasive suprasternal approach described by Hu et al. (See, Hu et al., Am. J. Physiol. Heart Circ. Physiol., 3:H1261-9 (2003)). Mice were anesthetized with a mixture of 80 mg/kg ketamine and 30 mg/kg xylazine intraperitoneally. A horizontal incision was made at the level of the suprasternal notch to allow direct visualization of the transverse aorta without entering the pleural space. With the aid of a dissecting microscope, aortic constriction was performed by ligating the aorta between the right innominate artery and the left carotid artery over a 27 G) needle using 5-0 silk suture. The needle was immediately removed after ligation, leaving the aortic constriction in place. The incision was closed and the animals were allowed to recover. Analgesia was provided before the mice awoke from anesthesia. Sham surgery utilized the same procedure but without aortic ligation. • Echocardiography.

[1] = sham-operated mice, three-week treatment
[2] = sham-operated mice, three-week treatment, versus vehicle

| SMILES | Anterior wall thickness at end-diastole (TAC mice) | Anterior wall thickness at end-systole (TAC mice) | LV ejection fraction (TAC mice) | Lung weight (TAC mice) [mg] | Lung/body weight (TAC mice) [mg/g] | Posterior wall thickness at end-diastole (TAC mice) | Posterior wall thickness at end-systole (TAC mice) | Ventricle weight (TAC mice) | Ventricle/body weight (TAC mice) | Survival rate (TAC mice) [%] | Plasma uric acid (TAC mice, three-week treatment) | TAC-induced ventricular fibrosis (TAC mice, three-week treatment) | Anterior wall thickness at end-diastole (sham mice) [mm] | Anterior wall thickness at end-systole (sham mice) [mm] | LV ejection fraction (sham mice) | LV fractional shortening (sham mice) | Lung/body weight (sham mice) [mg/g] | Posterior wall thickness at end-diastole (sham mice) [mm] | Posterior wall thickness at end-systole (sham mice) | Ventricle/body weight (sham mice) [mg/g] | other results |
| --- | --- | --- | --- | --- | --- | --- | --- | --- | --- | --- | --- | --- | --- | --- | --- | --- | --- | --- | --- | --- | --- |
| Oc1ncnc2[nH]ncc12 [allopurinol] | 0.87 ± 0.02^a mm | 1.20 ± 0.03^a mm | 60.2 ± 2.2^a % | 166 ± 16 | 6.98 ± 0.94 | 0.88 ± 0.02^a mm | 1.20 ± 0.03^a mm | 153 ± 6^a mg | 6.27 ± 0.36^a mg/g | 76 | decreased | not affected | 0.74 ± 0.01 | 1.11 ± 0.04 | 77.7 ± 2.1% | 40.1 ± 2.0% | 5.40 ± 0.14 | 0.74 ± 0.01 | 1.11 ± 0.03 mm | 4.13 ± 0.12 | LV end-diastolic diameter (TAC mice): 4.21 ± 0.08^a mm; LV end-systolic diameter (TAC mice): 3.09 ± 0.10^a mm; LV fractional shortening (TAC mice): 26.8 ± 1.4^a %; Lung/body weight (TAC mice, listed as AL): no significant effect; Ventricle/body weight (TAC mice, listed as AL): no significant effect; LV function and dimensions (echocardiography) (TAC mice, three-week treatment, versus vehicle-treated TAC mice): no effect; LV end-diastolic diameter (sham mice): 3.71 ± 0.06 mm; LV end-systolic diameter (sham mice): 2.22 ± 0.07 mm; Lung weight (sham mice): 131 ± 3 mg; Ventricle weight (sham mice): 100 ± 3 mg; Lung weight (sham mice, listed as AL): no significant effects; Lung/body weight (sham mice, listed as AL): no significant effects; Ventricle weight (sham mice, listed as AL): no significant effects; Ventricle/body weight (sham mice, listed as AL): no significant effects; LV function and dimensions (any of the parameters evaluated by echocardiography) [1]: no effect; Plasma uric acid [1]: significantly decreased |
| Cc1nc(-c2ccc(OCC(C)C)c(C#N)c2)sc1C(=O)O [febuxostat, 2-[3-cyano-4-(2-methylpropoxy)phenyl]-4-methylthiazole-5-carboxylic acid] | 0.85 ± 0.02^a mm | 1.19 ± 0.02^a mm | 63.9 ± 1.9^a % | 170 ± 17 | 6.59 ± 0.64 | 0.84 ± 0.02^a mm | 1.18 ± 0.02^a mm | 158 ± 6^a mg | 6.11 ± 0.21^a mg/g | 96 | decreased | not affected | 0.72 ± 0.02 | 1.18 ± 0.04 | 85.5 ± 1.6^a % | 48.3 ± 2.2^a % | 5.42 ± 0.11 | 0.72 ± 0.02 | 1.18 ± 0.04^a mm | 3.94 ± 0.07 | LV end-diastolic wall thickness (TAC mice, three-week treatment): unchanged; TAC-induced cardiac myocyte hypertrophy (TAC mice, three-week treatment): no effect; Improvement (increase) of LV ejection fraction (TAC mice, three-week treatment, versus vehicle): ~10%; End-diastolic wall thickness [1]: did not change; Plasma uric acid [1]: significantly decreased; Increase in LV ejection fraction [2]: ~9%; Increase in LV fractional shortening [2]: ~15% |
